# Reference: patent US20240252581A1, “COMPOSITIONS AND METHODS FOR TREATING RESPIRATORY DISTRESS” (S.I.S. SHULOV INNOVATIVE SCIENCE LTD., priority 2021, published 2024)
# “And” between values parts separate entries of the source, which are not always exact repeats. Identical values can stand only once. Square brackets hold non-standard residues; d marks the D form. Peptide text beside a SMILES is read from it. * marks the point of attachment. pGlu = O=C1CC[C@@H](C(=O)O)N1; Octanoyl = CCCCCCCC(=O)*
# Test system: inflammatory cytokines in BALF
# Test: LPS-induced acute lung injury / ARDS mouse model: BALF cytokine concentrations (multiplex ELISA)
# Type: in vivo, BALB/c mice
# Parameters: key to INF-γ / IL-1α / IL-5 / IL-6 / IL-10 / IL-12 / IL-17 / KC / MCP-1 / TNF-α / CXCL10 / RANTES / G-CSF / CCL3: (+) indicates activation; (−) indicates inhibition
# Description: In order to test the efficacy of ZEP3 sodium on lung inflammation, the lipopolysaccharide (LPS)-induced acute lung injury model was used. In particular, LPS was administered intratracheally at doses of 10 or 40 mg/kg body weight (BW) corresponding to 0.2 or 0.8 mg/mouse, respectively.
# ZEP3 sodium was administered by inhalation (INH) at doses of 25 or 250 mg/kg BW (0.5 or 5 mg/mouse, respectively), or intratracheally (IT) at doses of 5 or 20 mg/kg BW (0.1 or 0.4 mg/mouse, respectively) 6 hours after LPS administration and its effect was measured 72 hours following administration in the branchial alveolar fluid (BALF) using FACS instrumentation.
# To detect cytokine release in lungs fluid, cytokine concentrations were assessed in BALF samples using high sensitivity multiplex ELISA assays for: IFN-γ, IL-1α, IL-5, IL-6, IL-10, IL-12 (p70), IL-17A, KC, MCP-1, TNF-α, IP-10, RANTES, G-CSF, MIP-1α and RANTES. ZEP3Na administered intratracheally at 0.1 and 0.4 mg per mouse after instillation of 0.2 mg LPS inhibited the concentration of following interleukins: IL-1α, IL-6, IL-10, IL-12, IL-17, KC, MCP-1, TNF-α and G-CSF.
# [1] = Group 9: LPS 0.2 mg + ZEP3Na 0.4 mg IT, BALF, group mean
# [2] = Group 9: LPS 0.2 mg + ZEP3Na 0.4 mg IT, BALF, individual mice
# [3] = LPS 0.2 mg + ZEP3Na (IT) 0.1 mg, BALF
# [4] = LPS 0.2 mg + ZEP3Na (IT) 0.4 mg, BALF
# [5] = LPS 0.8 mg + ZEP3Na (INH) 0.5 mg, BALF
# [6] = LPS 0.8 mg + ZEP3Na (INH) 5 mg, BALF
# [7] = LPS 0.8 mg + ZEP3Na (IT) 0.1 mg, BALF
# [8] = LPS 0.8 mg + ZEP3Na (IT) 0.4 mg, BALF
smiles,measurement,setting,value
"CCCCCCCC(=O)NCCCC[C@H](NC(=O)[C@H](Cc1c[nH]c2ccccc12)NC(=O)[C@H](CC(N)=O)NC(=O)[C@@H]1CCC(=O)N1)C(=O)O [ZEP3Na, pGlu-Asn-Trp-Lys(Octanoyl)-ONa] ([pGlu]NWK(Octanoyl)-OH)",IL-17A,[1],584.07 pg/mL
same,KC,[1],751.10 pg/mL
same,MCP-1,[1],180.27 pg/mL
same,G-CSF,[2],176.85 pg/mL and 200.57 pg/mL and 585.70 pg/mL and 211.19 pg/mL and 8.45 pg/mL and 138.72 pg/mL and 227.63 pg/mL
same,G-CSF (pg/ml),[2],undetected
same,IL-12 (p70),[2],408.22 pg/ml and 471.74 pg/ml and 15.41 pg/ml (2×) and 262.69 pg/ml and 11.53 pg/ml and 8.09 pg/ml and 115.45 pg/ml and 140.60 pg/ml
same,IL-17A,[2],386.05 pg/mL and 1361.97 pg/mL and 15.26 pg/mL and 3386.75 pg/mL and 22.20 pg/mL and 4.57 pg/mL and 2.99 pg/mL and 21.13 pg/mL and 55.67 pg/mL
same,KC,[2],1154.03 pg/mL and 1559.44 pg/mL and 1143.16 pg/mL and 1153.90 pg/mL and 127.59 pg/mL and 63.82 pg/mL and 75.31 pg/mL and 656.41 pg/mL and 826.24 pg/mL
same,MCP-1,[2],240.17 pg/mL and 115.81 pg/mL and 823.17 pg/mL and 151.55 pg/mL and 14.15 pg/mL and 102.63 pg/mL and 174.95 pg/mL
same,MCP-1 (pg/ml),[2],undetected
same,CXCL10,[3],−
same,G-CSF,[3],−
same,IL-1α,[3],−
same,IL-6,[3],−
same,IL-10,[3],−
same,IL-12,[3],−
same,IL-17,[3],−
same,KC,[3],−
same,MCP-1,[3],−
same,TNF-α,[3],−
same,CXCL10,[4],−
same,G-CSF,[4],−
same,IL-1α,[4],−
same,IL-6,[4],−
same,IL-10,[4],−
same,IL-12,[4],−
same,IL-17,[4],−
same,KC,[4],−
same,MCP-1,[4],−
same,TNF-α,[4],−
same,CCL3,[5],−
same,CXCL10,[5],−
same,G-CSF,[5],−
same,IL-1α,[5],−
same,IL-5,[5],−
same,IL-6,[5],−
same,IL-10,[5],+
same,IL-12,[5],−
same,IL-17,[5],−
same,INF-γ,[5],−
same,KC,[5],−
same,MCP-1,[5],−
same,RANTES,[5],−
same,TNF-α,[5],−
same,CCL3,[6],−
same,CXCL10,[6],−
same,G-CSF,[6],−
same,IL-1α,[6],−
same,IL-5,[6],−
same,IL-6,[6],−
same,IL-10,[6],+
same,IL-12,[6],−
same,IL-17,[6],−
same,INF-γ,[6],−
same,KC,[6],−
same,MCP-1,[6],−
same,RANTES,[6],−
same,TNF-α,[6],−
same,IL-12,[7],−
same,TNF-α,[7],−
same,IL-12,[8],−
same,TNF-α,[8],−
same,"levels of INF-γ, IL-1α, IL-5, IL-6, IL-12, IL-17, KC, MCP-1, TNF-α, CXCL10, RANTES, G-CSF, and CCL3",administered by inhalation following LPS instillation,significantly inhibited the expression and reduced the levels
same,"levels of IL-1α, IL-6, IL-10, IL-12, IL-17, KC, MCP-1, TNF-α, CXCL10, and G-CSF",administered intratracheally following LPS instillation,significantly inhibited the expression and reduced the levels
same,"concentration of IL-1α, IL-6, IL-10, IL-12, IL-17, KC, MCP-1, TNF-α and G-CSF","intratracheally at 0.1 and 0.4 mg per mouse after instillation of 0.2 mg LPS, BALF",inhibited
